Data reported in patent US12319708B2, “Agonists of peroxisome proliferator-activated receptor alpha (PPARα) and methods of use” (The Board of Regents of the University of Oklahoma, priority 2018, dated 2025).
Read-outs that look alike come from different tables or passages of the source.

Target: T1, hPPARα (Homo sapiens, UniProt Q07869)
T1 sequence (Q07869 1-468): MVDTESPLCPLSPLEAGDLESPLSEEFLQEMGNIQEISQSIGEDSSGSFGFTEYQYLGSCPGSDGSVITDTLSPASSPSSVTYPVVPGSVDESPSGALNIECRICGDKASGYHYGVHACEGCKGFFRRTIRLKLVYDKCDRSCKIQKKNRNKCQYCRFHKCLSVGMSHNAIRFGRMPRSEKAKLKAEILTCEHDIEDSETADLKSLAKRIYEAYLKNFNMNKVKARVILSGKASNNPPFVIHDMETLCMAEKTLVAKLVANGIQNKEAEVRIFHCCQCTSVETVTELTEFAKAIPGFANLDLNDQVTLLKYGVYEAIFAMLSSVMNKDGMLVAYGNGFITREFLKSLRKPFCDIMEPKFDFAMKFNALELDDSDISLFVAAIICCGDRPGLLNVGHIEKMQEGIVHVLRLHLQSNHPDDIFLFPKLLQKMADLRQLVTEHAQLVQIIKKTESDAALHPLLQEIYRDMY
Assay: PPARα luciferase cell reporter assay (Indigo Biosciences)
Type: cell-based
Details: for ratio (5/50): ratio of relative light unit (RLU) signal at 5 and 50 μM: 5 and 50 μM compound concentrations; for fold-signal: ratio of maximal signal strength to that obtained with GW590735: relative to GW590735
Text: With the focused subset of analogs in-hand, our efforts shifted to the evaluation of these derivatives for PPARα agonism. Preliminary evaluation utilized a commercially available PPARα luciferase cell reporter assay (Indigo Biosciences). The cell-line employed is engineered to constitutively express high-levels of hPPARα. Upon interaction with an agonist, hPPARα translocates to the nucleus, binds to the PPRE, and upregulates gene transcription, including the inserted luciferase gene. Luciferase activity is detected indirectly through quantification of oxyluciferin production.

[1] = mean ± SEM of at least two separate experiments in triplicate (Table 9), read-out: EC50 hPPARα
[2] = structure IIa compounds (Table 6)
[3] = Table 6, cellular luciferase activity, read-out: α EC50
[4] = structure IIb compounds (Table 8)

| SMILES | Fold (5 μM): fold increase in luciferase compared to DMSO negative control [2] | Fold (50 μM): fold increase in luciferase compared to DMSO negative control [2] | other results |
| --- | --- | --- | --- |
| Cc1cc(CNc2cccc(C(=O)O)c2)ccc1OCc1cc(F)cc(F)c1 [25′] | – | – | ratio (5/50): ratio of relative light unit (RLU) signal at 5 and 50 μM: 1.1; fold-signal: ratio of maximal signal strength to that obtained with GW590735: 1.6 |
| O=C(O)c1cccc(NCc2ccc(OCc3ccc(F)cc3)c(F)c2)c1 [26′] | – | – | ratio (5/50): ratio of relative light unit (RLU) signal at 5 and 50 μM: 0.7; fold-signal: ratio of maximal signal strength to that obtained with GW590735: 1.7 |
| O=C(O)c1cccc(NCc2ccc(OCc3ccc(F)cc3)c(Cl)c2)c1 [27′] | – | – | ratio (5/50): ratio of relative light unit (RLU) signal at 5 and 50 μM: 1.1; fold-signal: ratio of maximal signal strength to that obtained with GW590735: 1.5 |
| Cc1cc(CN(C)c2cccc(C(=O)O)c2)ccc1OCc1ccc(F)cc1 [30′] | – | – | ratio (5/50): ratio of relative light unit (RLU) signal at 5 and 50 μM: 0.8; EC50 [1]: 0.067 ± 0.01 µM; fold-signal: ratio of maximal signal strength to that obtained with GW590735: 2.1 |
| O=C(O)c1cc(F)cc(NCc2ccc(OCc3ccc(F)cc3)c(Cl)c2)c1 [32′] | – | – | ratio (5/50): ratio of relative light unit (RLU) signal at 5 and 50 μM: 1.1; EC50 [1]: 0.052 ± 0.011 µM; fold-signal: ratio of maximal signal strength to that obtained with GW590735: 1.8 |
| COc1ccc(COc2ccc(CNc3cccc(B(O)O)c3)cc2)cc1 [Compound 110] | 1 fold | 1 fold | – |
| CC(C)(Oc1cccc(NCc2ccc(OCc3ccccc3)cc2)c1)C(=O)O [Compound 116] | 1 fold | 46 fold | – |
| O=C(O)c1cccc(NCc2ccc(OCc3ccccc3)cc2)c1 [Compound 117] | 18 fold | 35 fold | – |
| O=C(O)c1cccc(NCc2ccc(OCc3ccc(Cl)cc3Cl)cc2)c1 [Compound 118] | 1 fold | 37 fold | – |
| O=C(O)c1cccc(NCc2ccc(OCc3cc(F)cc(F)c3)cc2)c1 [Compound 119] | 9 fold | 35 fold | – |
| O=C(O)c1cccc(NCc2ccc(OCc3ccc([N+](=O)[O-])cc3)cc2)c1 [Compound 120] | 16 fold | 35 fold | – |
| CC(C)(Oc1cccc(NCc2ccc(OCc3cc(F)cc(F)c3)cc2)c1)C(=O)O [Compound 121] | 16 fold | 42 fold | – |
| O=C(O)c1cccc(NCc2ccc(OCc3ccc(Cl)cc3)cc2)c1 [Compound 122] | 17 fold | 36 fold | – |
| CC(C)(Oc1cccc(NCc2ccc(OCc3ccc(Cl)cc3)cc2)c1)C(=O)O [Compound 123] | 2 fold | 55 fold | – |
| O=C(O)c1cccc(NCc2ccc(OCc3ccc(C(F)(F)F)cc3)cc2)c1 [Compound 126] | 81 fold | 100 fold | EC50 [3]: 0.8 µM |
| CC(C)(Oc1cccc(NCc2ccc(OCc3ccc(F)cc3)cc2)c1)C(=O)O [Compound 127] | 11 fold | 150 fold | – |
| CC(C)(Oc1cccc(NCc2ccc(OCc3ccc(C(F)(F)F)cc3)cc2)c1)C(=O)O [Compound 128] | 19 fold | 106 fold | – |
| O=C(O)COc1cccc(NCc2ccc(OCc3ccc(C(F)(F)F)cc3)cc2)c1 [Compound 129] | 2 fold | 112 fold | – |
| COc1ccc(COc2ccc(CNc3cccc(OCC(=O)O)c3)cc2)cc1 [Compound 130] | 2 fold | 43 fold | EC50 [3]: 29.2 µM |
| O=C(O)c1cccc(NCCc2ccc(OCCc3ccccc3)cc2)c1 [Compound 133] | 1 fold | 0 fold | – |
| COc1ccc(COc2ccc(CNc3cccc(C(=O)NO)c3)cc2)cc1 [Compound 134] | 3 fold | 9 fold | – |

| SMILES | Fold (5 μM): fold increase in luciferase compared to DMSO negative control [2] | Fold (50 μM): fold increase in luciferase compared to DMSO negative control [2] | other results |
| --- | --- | --- | --- |
| CS(=O)(=O)Nc1cccc(NCc2ccc(OCc3ccc(F)cc3)cc2)c1 [Compound 145] | 3 fold | 5 fold | – |
| O=C(NO)c1cccc(NCc2ccc(OCc3ccc(F)cc3)cc2)c1 [Compound 146] | 34 fold | 53 fold | – |
| NS(=O)(=O)c1cccc(NCc2ccc(OCc3ccc(F)cc3)cc2)c1 [Compound 147] | 3 fold | 3 fold | – |
| Fc1ccc(COc2ccc(CNc3cccc(-c4nnn[nH]4)c3)cc2)cc1 [Compound 148] | 73 fold | 85 fold | EC50 [3]: 5.7 µM |
| CN(Cc1ccc(OCc2ccc(F)cc2)cc1)c1cccc(C(=O)O)c1 [Compound 151] | 102 fold | 109 fold | EC50 [3]: 1 µM |
| CN(Cc1ccc(OCc2ccc(F)cc2)cc1)c1cccc(OC(C)(C)C(=O)O)c1 [Compound 153] | 94 fold | 120 fold | EC50 [3]: 1.7 µM |
| OB(O)c1cccc(NCc2ccc(OCc3ccc(F)cc3)cc2)c1 [Compound 154] | 3 fold | 2 fold | – |
| O=C(O)c1ccc(NCc2ccc(OCc3ccc(C(F)(F)F)cc3)cc2)cc1 [Compound 155] | – | – | Fold (5 μM): fold increase in luciferase compared to DMSO negative control [4]: 4 fold; Fold (50 μM): fold increase in luciferase compared to DMSO negative control [4]: 8 fold |
| COc1ccc(COc2ccc(CNc3ccc(C(=O)O)cc3)cc2)cc1 [Compound 162] | – | – | Fold (5 μM): fold increase in luciferase compared to DMSO negative control [4]: 4 fold; Fold (50 μM): fold increase in luciferase compared to DMSO negative control [4]: 29 fold |
| O=C(O)c1cc(Cl)cc(NCc2ccc(OCc3ccc(F)cc3)cc2)c1 [Compound 168] | 18 fold | 93 fold | – |
| CC(C)(Oc1ccc(NCc2ccc(OCc3ccc(F)cc3)cc2)cc1)C(=O)O [Compound 182] | – | – | Fold (5 μM): fold increase in luciferase compared to DMSO negative control [4]: 40 fold; Fold (50 μM): fold increase in luciferase compared to DMSO negative control [4]: 74 fold |
| O=C(O)c1ccc(NCc2ccc(OCc3ccc(F)cc3)cc2)cc1 [Compound 183] | – | – | Fold (5 μM): fold increase in luciferase compared to DMSO negative control [4]: 4 fold; Fold (50 μM): fold increase in luciferase compared to DMSO negative control [4]: 14 fold |
| O=C(O)c1cc(Br)cc(NCc2ccc(OCc3ccc(F)cc3)cc2)c1 [Compound 184] | 59 fold | 69 fold | EC50 [3]: 0.9 µM |
| O=C(O)c1cc(F)cc(NCc2ccc(OCc3ccc(F)cc3)cc2)c1 [Compound 185] | 61 fold | 66 fold | EC50 [3]: 0.7 µM |
| COc1ccc(CCOc2ccc(CCNc3cccc(C(=O)O)c3)cc2)cc1 [Compound 187] | 1 fold | 0 fold | – |
| CC(C)(Sc1cccc(NCc2ccc(OCc3ccc(F)cc3)cc2)c1)C(=O)O [Compound 188] | 10 fold | 45 fold | – |
| O=C(O)c1cccc(NCc2ccc(OCc3ccc(I)cc3)cc2)c1 [Compound 189] | 39 fold | 37 fold | EC50 [3]: 1.2 µM |
| N#Cc1ccc(COc2ccc(CNc3cccc(C(=O)O)c3)cc2)cc1 [Compound 191] | 42 fold | 61 fold | – |
| O=C(O)c1cccc(NCc2ccc(OCc3ccc(Br)cc3)cc2)c1 [Compound 192] | 53 fold | 58 fold | EC50 [3]: 0.8 µM |
| O=C(O)c1cccc(NCc2ccc(OCc3cccc(F)c3)cc2)c1 [Compound 193] | 73 fold | 56 fold | EC50 [3]: 1.1 µM |
| O=C(O)c1cccc(NCc2ccc(OCc3ccc(F)cc3F)cc2)c1 [Compound 194] | 51 fold | 49 fold | EC50: 0.4 µM |
